According to ChEMBL document CHEMBL3797047, “Discovery of indirubin derivatives as new class of DRAK2 inhibitors from high throughput screening” (Bioorg Med Chem Lett, 2016):

Key:
[1] = biological target: T1, Serine/threonine-protein kinase 17B (Homo sapiens, UniProt O94768); experiment: Inhibition of DRAK2 (unknown origin) using MRLC3 peptide as substrate incubated for 2 hrs by ADP-Glo kinase assay
T1 sequence (O94768 whole entry): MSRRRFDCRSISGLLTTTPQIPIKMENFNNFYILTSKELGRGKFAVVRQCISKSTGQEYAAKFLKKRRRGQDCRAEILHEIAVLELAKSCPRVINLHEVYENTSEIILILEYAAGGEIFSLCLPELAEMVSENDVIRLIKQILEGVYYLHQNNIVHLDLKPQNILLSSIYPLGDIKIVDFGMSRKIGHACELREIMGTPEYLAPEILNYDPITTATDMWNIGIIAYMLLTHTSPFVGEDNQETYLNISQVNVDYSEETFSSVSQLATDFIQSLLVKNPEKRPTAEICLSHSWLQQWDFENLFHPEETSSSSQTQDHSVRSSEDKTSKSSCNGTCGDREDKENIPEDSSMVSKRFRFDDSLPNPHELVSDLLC

[2] = biological target: T2, Serine/threonine-protein kinase 17A (Homo sapiens, UniProt Q9UEE5); experiment: Inhibition of DRAK1 (unknown origin)
T2 sequence (Q9UEE5 whole entry): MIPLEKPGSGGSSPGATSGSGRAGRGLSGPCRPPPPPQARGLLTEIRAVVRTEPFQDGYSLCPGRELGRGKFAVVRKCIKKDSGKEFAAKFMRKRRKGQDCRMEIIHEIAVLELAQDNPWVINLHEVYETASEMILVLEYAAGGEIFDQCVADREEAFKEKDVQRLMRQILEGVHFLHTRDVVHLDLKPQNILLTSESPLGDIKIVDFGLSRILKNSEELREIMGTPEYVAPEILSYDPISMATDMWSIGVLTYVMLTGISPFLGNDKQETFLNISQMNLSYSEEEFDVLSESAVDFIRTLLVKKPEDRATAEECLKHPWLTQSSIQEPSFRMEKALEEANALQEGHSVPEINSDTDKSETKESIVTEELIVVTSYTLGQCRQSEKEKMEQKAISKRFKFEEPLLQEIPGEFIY

[3] = biological target: Death-associated protein kinase 1 (Homo sapiens, UniProt P53355); experiment: Inhibition of DAPK1 (unknown origin)
Death-associated protein kinase 1, sequence (P53355 whole entry): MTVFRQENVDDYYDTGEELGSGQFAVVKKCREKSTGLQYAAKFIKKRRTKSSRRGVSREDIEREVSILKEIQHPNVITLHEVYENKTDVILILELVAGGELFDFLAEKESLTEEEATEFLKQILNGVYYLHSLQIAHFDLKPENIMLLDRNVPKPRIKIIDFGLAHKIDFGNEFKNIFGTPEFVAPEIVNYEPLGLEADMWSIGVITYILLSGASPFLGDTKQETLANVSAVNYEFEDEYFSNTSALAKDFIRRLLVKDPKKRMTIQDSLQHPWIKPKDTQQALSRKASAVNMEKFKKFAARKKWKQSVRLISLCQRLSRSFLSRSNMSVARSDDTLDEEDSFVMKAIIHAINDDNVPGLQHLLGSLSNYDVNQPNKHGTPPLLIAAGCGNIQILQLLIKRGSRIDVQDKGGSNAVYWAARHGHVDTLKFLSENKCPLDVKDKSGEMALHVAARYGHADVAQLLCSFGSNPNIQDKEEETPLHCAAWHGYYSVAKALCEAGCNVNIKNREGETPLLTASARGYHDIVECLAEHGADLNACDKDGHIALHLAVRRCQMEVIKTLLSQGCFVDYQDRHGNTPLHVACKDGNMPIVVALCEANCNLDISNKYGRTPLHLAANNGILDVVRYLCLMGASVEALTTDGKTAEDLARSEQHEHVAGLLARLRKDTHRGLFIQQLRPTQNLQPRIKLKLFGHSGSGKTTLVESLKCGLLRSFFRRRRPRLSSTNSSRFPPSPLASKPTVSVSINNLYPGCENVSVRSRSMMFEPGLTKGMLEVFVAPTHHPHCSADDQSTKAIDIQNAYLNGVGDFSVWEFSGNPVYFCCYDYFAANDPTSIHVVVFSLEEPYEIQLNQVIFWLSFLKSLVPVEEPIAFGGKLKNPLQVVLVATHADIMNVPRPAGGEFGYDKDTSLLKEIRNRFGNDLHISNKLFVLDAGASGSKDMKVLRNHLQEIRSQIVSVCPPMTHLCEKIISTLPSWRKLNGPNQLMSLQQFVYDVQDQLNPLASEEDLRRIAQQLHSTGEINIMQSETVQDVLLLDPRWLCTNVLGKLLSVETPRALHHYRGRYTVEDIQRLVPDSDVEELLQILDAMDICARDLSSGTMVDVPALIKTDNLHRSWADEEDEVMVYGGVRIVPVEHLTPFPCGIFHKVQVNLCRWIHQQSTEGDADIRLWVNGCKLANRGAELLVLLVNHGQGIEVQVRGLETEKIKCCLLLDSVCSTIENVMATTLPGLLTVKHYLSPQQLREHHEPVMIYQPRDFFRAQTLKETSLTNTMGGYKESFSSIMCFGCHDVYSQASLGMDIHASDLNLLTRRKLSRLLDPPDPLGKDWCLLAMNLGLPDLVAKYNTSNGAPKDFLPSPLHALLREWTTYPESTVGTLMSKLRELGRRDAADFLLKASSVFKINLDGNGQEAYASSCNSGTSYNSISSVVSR

[4] = biological target: Death-associated protein kinase 2 (Homo sapiens, UniProt Q9UIK4); experiment: Inhibition of DAPK2 (unknown origin)
Death-associated protein kinase 2, sequence (Q9UIK4 whole entry): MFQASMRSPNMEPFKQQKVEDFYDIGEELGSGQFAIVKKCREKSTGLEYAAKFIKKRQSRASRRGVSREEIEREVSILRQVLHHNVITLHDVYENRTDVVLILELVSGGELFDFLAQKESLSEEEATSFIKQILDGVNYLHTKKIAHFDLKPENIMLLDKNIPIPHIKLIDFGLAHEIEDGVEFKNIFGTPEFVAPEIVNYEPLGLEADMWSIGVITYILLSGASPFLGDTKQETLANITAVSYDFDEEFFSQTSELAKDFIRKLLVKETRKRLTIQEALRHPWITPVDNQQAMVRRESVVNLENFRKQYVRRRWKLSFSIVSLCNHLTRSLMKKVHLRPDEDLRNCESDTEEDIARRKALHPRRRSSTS

[5] = biological target: Death-associated protein kinase 3 (Homo sapiens, UniProt O43293); experiment: Inhibition of DAPK3 (unknown origin)
Death-associated protein kinase 3, sequence (O43293 whole entry): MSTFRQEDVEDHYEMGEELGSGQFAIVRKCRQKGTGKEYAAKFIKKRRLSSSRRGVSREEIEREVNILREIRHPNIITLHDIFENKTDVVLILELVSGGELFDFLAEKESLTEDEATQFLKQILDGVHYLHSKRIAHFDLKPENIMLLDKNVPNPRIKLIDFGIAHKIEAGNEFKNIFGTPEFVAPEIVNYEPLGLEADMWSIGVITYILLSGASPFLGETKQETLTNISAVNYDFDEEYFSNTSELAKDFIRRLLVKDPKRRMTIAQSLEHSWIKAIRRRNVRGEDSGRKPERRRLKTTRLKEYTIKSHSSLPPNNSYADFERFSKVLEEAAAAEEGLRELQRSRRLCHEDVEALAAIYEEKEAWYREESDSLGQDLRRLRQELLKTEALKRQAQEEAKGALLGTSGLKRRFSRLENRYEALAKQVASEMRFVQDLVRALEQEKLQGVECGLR

[6] = biological target: T3, Epidermal growth factor receptor (Homo sapiens, UniProt P00533); experiment: Inhibition of EGFR (746 to 750) deletion mutant (unknown origin) using peptide substrate incubated for 30 mins by europium donor dye-based plate reader analysis; assay type: protein assay
Target sequence in this assay (P00533 25-1210 limits assumed, stated change not applied): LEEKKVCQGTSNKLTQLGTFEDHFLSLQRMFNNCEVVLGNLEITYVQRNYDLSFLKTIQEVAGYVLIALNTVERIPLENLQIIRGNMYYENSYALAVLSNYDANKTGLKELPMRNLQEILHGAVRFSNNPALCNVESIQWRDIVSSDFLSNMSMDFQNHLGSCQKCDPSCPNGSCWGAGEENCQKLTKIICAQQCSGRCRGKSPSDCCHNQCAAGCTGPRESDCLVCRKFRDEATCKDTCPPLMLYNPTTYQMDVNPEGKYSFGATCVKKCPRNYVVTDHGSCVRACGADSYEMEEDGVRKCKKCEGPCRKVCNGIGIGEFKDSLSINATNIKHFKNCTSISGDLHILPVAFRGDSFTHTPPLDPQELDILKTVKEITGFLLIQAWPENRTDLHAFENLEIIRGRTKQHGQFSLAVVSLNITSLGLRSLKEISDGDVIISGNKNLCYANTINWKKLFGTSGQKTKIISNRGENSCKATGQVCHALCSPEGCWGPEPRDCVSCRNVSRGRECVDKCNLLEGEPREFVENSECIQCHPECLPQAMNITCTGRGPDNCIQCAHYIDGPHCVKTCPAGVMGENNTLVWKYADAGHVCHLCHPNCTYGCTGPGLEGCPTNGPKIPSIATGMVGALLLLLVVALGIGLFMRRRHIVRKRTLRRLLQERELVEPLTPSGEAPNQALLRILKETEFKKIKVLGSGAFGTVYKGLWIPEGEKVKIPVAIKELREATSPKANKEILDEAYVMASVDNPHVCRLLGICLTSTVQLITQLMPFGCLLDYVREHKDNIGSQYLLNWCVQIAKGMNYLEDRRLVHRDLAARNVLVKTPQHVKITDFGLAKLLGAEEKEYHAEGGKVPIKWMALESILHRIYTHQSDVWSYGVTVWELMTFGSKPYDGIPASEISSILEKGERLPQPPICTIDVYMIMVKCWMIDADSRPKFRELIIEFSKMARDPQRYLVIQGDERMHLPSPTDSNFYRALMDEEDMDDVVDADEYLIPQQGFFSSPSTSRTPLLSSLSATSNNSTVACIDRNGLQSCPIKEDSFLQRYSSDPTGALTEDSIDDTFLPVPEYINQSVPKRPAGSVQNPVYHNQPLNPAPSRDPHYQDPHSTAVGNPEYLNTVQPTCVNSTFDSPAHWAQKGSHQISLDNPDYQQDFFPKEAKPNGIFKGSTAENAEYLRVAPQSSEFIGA

[7] = biological target: ALK tyrosine kinase receptor (Homo sapiens, UniProt Q9UM73); experiment: Inhibition of ALK (unknown origin) using peptide substrate incubated for 30 mins by europium donor dye-based plate reader analysis
Activated CDC42 kinase 1 = Activated CDC42 kinase 1 (Homo sapiens, UniProt Q07912); experiment: Inhibition of AcK1 (unknown origin) using peptide substrate incubated for 30 mins by europium donor dye-based plate reader analysis
[8] = biological target: T3, Epidermal growth factor receptor; experiment: Inhibition of EGFR (unknown origin) using peptide substrate incubated for 30 mins by europium donor dye-based plate reader analysis
[9] = biological target: T1, Serine/threonine-protein kinase 17B; experiment: Competitive inhibition of DRAK2 (unknown origin) using MRLC3 peptide as substrate incubated for 2 hrs by Lineweaver-Burk plot analysis in presence of ATP
[10] = biological target: Maternal embryonic leucine zipper kinase (Homo sapiens, UniProt Q14680); experiment: Inhibition of MELK (unknown origin) using peptide substrate incubated for 30 mins by europium donor dye-based plate reader analysis
[11] = biological target: Hepatocyte growth factor receptor (Homo sapiens, UniProt P08581); experiment: Inhibition of c-MET (unknown origin) using peptide substrate incubated for 30 mins by europium donor dye-based plate reader analysis
Hepatocyte growth factor receptor, sequence (P08581 whole entry): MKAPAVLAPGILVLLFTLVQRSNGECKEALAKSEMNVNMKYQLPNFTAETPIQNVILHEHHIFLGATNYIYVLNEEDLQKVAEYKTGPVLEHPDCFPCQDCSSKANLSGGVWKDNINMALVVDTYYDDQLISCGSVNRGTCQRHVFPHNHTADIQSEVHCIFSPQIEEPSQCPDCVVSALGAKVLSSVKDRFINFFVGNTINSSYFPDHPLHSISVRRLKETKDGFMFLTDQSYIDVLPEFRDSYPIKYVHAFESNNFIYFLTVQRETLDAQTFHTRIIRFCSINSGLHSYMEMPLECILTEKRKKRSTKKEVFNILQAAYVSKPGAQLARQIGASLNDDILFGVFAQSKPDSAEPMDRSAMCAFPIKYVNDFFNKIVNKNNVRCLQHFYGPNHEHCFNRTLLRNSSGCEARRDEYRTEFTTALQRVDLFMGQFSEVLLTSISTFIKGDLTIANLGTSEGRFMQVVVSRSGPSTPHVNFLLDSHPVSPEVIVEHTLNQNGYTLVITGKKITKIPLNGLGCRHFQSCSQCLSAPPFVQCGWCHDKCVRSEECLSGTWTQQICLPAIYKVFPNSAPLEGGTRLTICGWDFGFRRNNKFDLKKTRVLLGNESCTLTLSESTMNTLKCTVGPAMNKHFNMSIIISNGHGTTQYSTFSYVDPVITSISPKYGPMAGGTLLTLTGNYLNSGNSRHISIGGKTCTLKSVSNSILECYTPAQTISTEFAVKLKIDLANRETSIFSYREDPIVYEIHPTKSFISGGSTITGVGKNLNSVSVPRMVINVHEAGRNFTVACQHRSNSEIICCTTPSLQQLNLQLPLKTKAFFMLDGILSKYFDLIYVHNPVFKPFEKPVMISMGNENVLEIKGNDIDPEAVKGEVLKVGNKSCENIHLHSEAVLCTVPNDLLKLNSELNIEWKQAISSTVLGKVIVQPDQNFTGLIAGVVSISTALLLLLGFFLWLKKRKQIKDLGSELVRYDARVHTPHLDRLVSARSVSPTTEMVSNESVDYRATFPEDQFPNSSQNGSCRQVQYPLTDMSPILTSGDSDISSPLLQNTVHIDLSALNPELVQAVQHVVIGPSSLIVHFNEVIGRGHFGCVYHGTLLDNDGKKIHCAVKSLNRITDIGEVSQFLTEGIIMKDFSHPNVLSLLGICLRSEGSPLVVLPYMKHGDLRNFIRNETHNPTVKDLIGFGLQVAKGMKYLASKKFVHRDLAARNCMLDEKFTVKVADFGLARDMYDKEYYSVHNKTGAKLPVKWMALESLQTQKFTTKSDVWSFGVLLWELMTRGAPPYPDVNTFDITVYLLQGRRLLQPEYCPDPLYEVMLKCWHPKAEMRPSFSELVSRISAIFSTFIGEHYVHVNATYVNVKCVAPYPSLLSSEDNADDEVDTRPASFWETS

Insulin receptor = Insulin receptor (Homo sapiens, UniProt P06213); experiment: Inhibition of IRK (unknown origin) using peptide substrate incubated for 30 mins by europium donor dye-based plate reader analysis

SMILES	IC50 [1]	IC50 [2]	further results
O=C1Nc2ccc(F)cc2/C1=C1/Nc2ccccc2C1=O	> 10 µM	–	–
O=C1Nc2ccc(I)cc2/C1=C1/Nc2ccccc2C1=O	6.2 µM	–	–
Cc1ccc2c(c1)/C(=C1/Nc3ccccc3C1=O)C(=O)N2	> 10 µM	–	–
O=C1Nc2ccc(Cl)cc2/C1=C1/Nc2ccccc2C1=O	> 10 µM	–	–
Cc1cc(Cl)cc2c1NC(=O)/C2=C1\Nc2ccccc2\C1=N/O	> 10 µM	–	–
O=C1Nc2ccc(NC(=O)c3cc([N+](=O)[O-])cc([N+](=O)[O-])c3)cc2/C1=C1/Nc2ccccc2/C1=N\O	0.077 µM	0.024 µM	–
O=C1Nc2ccccc2/C1=C1/Nc2cccc(Br)c2C1=O	> 10 µM	–	–
O=C1Nc2ccc(NC(=O)c3ccccc3C(F)(F)F)cc2/C1=C1/Nc2ccccc2/C1=N\O	0.12 µM	0.32 µM	–
O=C(COc1cccc(Cl)c1)Nc1ccc2c(c1)/C(=C1/Nc3ccccc3/C1=N\O)C(=O)N2	0.95 µM	0.46 µM	–
O=C1Nc2ccc(NC(=O)c3cccc4ccccc34)cc2/C1=C1/Nc2ccccc2/C1=N\O	1.5 µM	0.7 µM	–
Cc1cc(Cl)cc2c1NC(=O)/C2=C1\Nc2ccccc2C1=O	> 10 µM	–	–
Cc1cc(C)c2c(c1)/C(=C1/Nc3ccccc3C1=O)C(=O)N2	> 10 µM	–	–
O=C1Nc2ccc([N+](=O)[O-])cc2/C1=C1/Nc2cccc(Br)c2C1=O	> 10 µM	–	–
Nc1ccc2c(c1)/C(=C1/Nc3ccccc3C1=O)C(=O)N2	1.4 µM	–	–
O=C1Nc2ccccc2/C1=C1/Nc2ccccc2C1=O [INDIRUBIN]	> 10 µM	–	–

Continued, in another order:

IC50 [1]	IC50 [2]	SMILES	further results
0.62 µM	–	O=C1Nc2ccc(F)cc2/C1=C1/Nc2ccccc2/C1=N\O	–
0.71 µM	–	O=C1Nc2ccccc2/C1=C1/Nc2ccccc2/C1=N\O	–
0.014 µM	0.12 µM	CC(C)=CC(=O)Nc1ccc2c(c1)/C(=C1/Nc3ccccc3/C1=N\O)C(=O)N2	IC50 [3]: 0.45 µM; IC50 [4]: 0.57 µM; IC50 [5]: 0.45 µM
0.003 µM	0.051 µM	CCCCC(=O)Nc1ccc2c(c1)/C(=C1/Nc3ccccc3/C1=N\O)C(=O)N2	IC50 [3]: 1.8 µM; IC50 [6]: > 10 µM; IC50 [7]: > 10 µM; IC50 (Activated CDC42 kinase 1): > 10 µM; IC50 [8]: > 10 µM; Ki [9]: 0.00026 µM; IC50 [10]: > 10 µM; IC50 [4]: 2.3 µM; IC50 [5]: 1.8 µM; IC50 [11]: > 10 µM; IC50 (Insulin receptor): > 10 µM
0.33 µM	0.36 µM	COc1ccc(C(=O)Nc2ccc3c(c2)/C(=C2/Nc4ccccc4/C2=N\O)C(=O)N3)cc1	–
3.2 µM	3 µM	O=C1Nc2ccc(NC(=O)c3ccc(Cl)cc3)cc2/C1=C1/Nc2ccccc2/C1=N\O	–
0.2 µM	0.36 µM	O=C1Nc2ccc(NC(=O)c3ccccc3)cc2/C1=C1/Nc2ccccc2/C1=N\O	–
0.29 µM	0.25 µM	O=C1Nc2ccc(NC(=O)c3ccccc3F)cc2/C1=C1/Nc2ccccc2/C1=N\O	–
0.12 µM	0.11 µM	O=C1Nc2ccc(NC(=O)C3CCCCC3)cc2/C1=C1/Nc2ccccc2/C1=N\O	–
0.7 µM	1.1 µM	O=C(/C=C/c1ccccc1)Nc1ccc2c(c1)/C(=C1/Nc3ccccc3/C1=N\O)C(=O)N2	–
1.2 µM	0.78 µM	O=C1Nc2ccc(NC(=O)c3ccc(F)cc3)cc2/C1=C1/Nc2ccccc2/C1=N\O	–
1.3 µM	1.3 µM	Cc1ccc(C(=O)Nc2ccc3c(c2)/C(=C2/Nc4ccccc4/C2=N\O)C(=O)N3)cc1	–
1.3 µM	0.5 µM	O=C1Nc2ccc(NC(=O)c3ccc([N+](=O)[O-])cc3)cc2/C1=C1/Nc2ccccc2/C1=N\O	–
0.008 µM	0.021 µM	O=C1Nc2ccc(NC(=O)C3CC3)cc2/C1=C1/Nc2ccccc2/C1=N\O	IC50 [3]: 0.14 µM; IC50 [4]: 0.17 µM; IC50 [5]: 0.14 µM
0.014 µM	0.024 µM	CC(C)(C)CC(=O)Nc1ccc2c(c1)/C(=C1/Nc3ccccc3/C1=N\O)C(=O)N2	IC50 [3]: > 10 µM; IC50 [4]: > 10 µM; IC50 [5]: > 10 µM
0.01 µM	0.012 µM	CCCC(=O)Nc1ccc2c(c1)/C(=C1/Nc3ccccc3/C1=N\O)C(=O)N2	IC50 [3]: 0.51 µM; IC50 [6]: 8 µM; IC50 [7]: > 10 µM; IC50 (Activated CDC42 kinase 1): > 10 µM; IC50 [8]: > 10 µM; IC50 [10]: 1 µM; IC50 [4]: 0.59 µM; IC50 [5]: 0.51 µM; IC50 [11]: > 10 µM; IC50 (Insulin receptor): > 10 µM
0.021 µM	0.032 µM	CC(C)(C)C(=O)Nc1ccc2c(c1)/C(=C1/Nc3ccccc3/C1=N\O)C(=O)N2	IC50 [3]: 0.7 µM; IC50 [6]: > 10 µM; IC50 [7]: > 10 µM; IC50 (Activated CDC42 kinase 1): > 10 µM; IC50 [8]: > 10 µM; IC50 [10]: 2.8 µM; IC50 [4]: 0.83 µM; IC50 [5]: 0.7 µM; IC50 [11]: > 10 µM; IC50 (Insulin receptor): > 10 µM
0.25 µM	–	Nc1ccc2c(c1)/C(=C1/Nc3ccccc3/C1=N\O)C(=O)N2	–
